# From patent US20080207714A1, “Diagnosis And Treatment Of Breast Cancer” (THE REGENTS OF THE UNIVERSITY OF MICHIGAN, priority 2006, published 2008)
# How the values were obtained:
# Type in all cases: cell-based
# Conditions in all cases: reduction of AT-mediated invasion, losartan 2 uM
# [1] = tested on: BT549 breast cancer cells; assay: Matrigel cell invasion assay, BT549
# [2] = tested on: 578T breast cancer cells; assay: Matrigel cell invasion assay, 578T
# [3] = tested on: MCF-7 breast cancer cells; assay: Matrigel cell invasion assay, MCF7
# [4] = tested on: H16N2 immortalized benign breast epithelial cell line; assay: Matrigel cell invasion assay, H16N2
# [5] = tested on: DU145 prostate cancer cells; assay: Matrigel cell invasion assay, DU145
compound,measurement,setting,value
"CCCCc1nc(Cl)c(CO)n1Cc1ccc(-c2ccccc2-c2nn[nH]n2)cc1 [Lo, Losartan]",Lo (2 uM) % Red.,[1],72.4%
same,Lo (2 uM) % Red.,[1]; listed as losartan,72%
same,Lo (2 uM) % Red.,[2],67.9%
same,Lo (2 uM) % Red.,[2]; listed as losartan,68%
same,Lo (2 uM) % Red.,[3],56.7%
same,Lo (2 uM) % Red.,[4],16.7%
same,Lo (2 uM) % Red.,[5],35.0%
